Test results: ChEMBL document CHEMBL1140205, “Discovery and development of fatty acid amide hydrolase (FAAH) inhibitors” (J Med Chem, 2008)

Molecular target: T1, Fatty-acid amide hydrolase 1 (Rattus norvegicus, UniProt P97612)
T1 sequence (P97612 whole entry): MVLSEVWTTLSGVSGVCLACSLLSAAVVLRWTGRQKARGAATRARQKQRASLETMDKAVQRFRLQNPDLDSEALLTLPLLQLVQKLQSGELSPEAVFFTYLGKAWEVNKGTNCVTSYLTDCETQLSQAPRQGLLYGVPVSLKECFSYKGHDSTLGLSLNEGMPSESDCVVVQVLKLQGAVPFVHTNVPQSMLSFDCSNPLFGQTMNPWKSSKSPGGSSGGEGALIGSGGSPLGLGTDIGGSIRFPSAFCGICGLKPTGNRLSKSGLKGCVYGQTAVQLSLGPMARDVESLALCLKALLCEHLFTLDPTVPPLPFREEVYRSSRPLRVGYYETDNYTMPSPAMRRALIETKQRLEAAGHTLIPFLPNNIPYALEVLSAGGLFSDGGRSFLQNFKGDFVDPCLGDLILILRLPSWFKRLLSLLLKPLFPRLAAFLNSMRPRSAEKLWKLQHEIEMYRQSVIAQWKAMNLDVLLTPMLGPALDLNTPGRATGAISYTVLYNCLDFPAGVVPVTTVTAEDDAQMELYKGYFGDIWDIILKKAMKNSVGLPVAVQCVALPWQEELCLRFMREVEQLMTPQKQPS
Assay: Inhibition of rat FAAH
Conditions: not given

SMILES	IC50 [µM]
CN(C)C(=O)n1nnnc1Cc1ccc(-c2ccccc2)cc1	0.0124
CC(C)c1cccc(C(C)C)c1O [PROPOFOL]	14
CCCC(C)C1(CC)C(=O)NC(=S)NC1=O (stereo not given) [THIOPENTAL]	2000

Molecular target: T2, Fatty-acid amide hydrolase 1 (Homo sapiens, UniProt O00519)
T2 sequence (O00519 whole entry): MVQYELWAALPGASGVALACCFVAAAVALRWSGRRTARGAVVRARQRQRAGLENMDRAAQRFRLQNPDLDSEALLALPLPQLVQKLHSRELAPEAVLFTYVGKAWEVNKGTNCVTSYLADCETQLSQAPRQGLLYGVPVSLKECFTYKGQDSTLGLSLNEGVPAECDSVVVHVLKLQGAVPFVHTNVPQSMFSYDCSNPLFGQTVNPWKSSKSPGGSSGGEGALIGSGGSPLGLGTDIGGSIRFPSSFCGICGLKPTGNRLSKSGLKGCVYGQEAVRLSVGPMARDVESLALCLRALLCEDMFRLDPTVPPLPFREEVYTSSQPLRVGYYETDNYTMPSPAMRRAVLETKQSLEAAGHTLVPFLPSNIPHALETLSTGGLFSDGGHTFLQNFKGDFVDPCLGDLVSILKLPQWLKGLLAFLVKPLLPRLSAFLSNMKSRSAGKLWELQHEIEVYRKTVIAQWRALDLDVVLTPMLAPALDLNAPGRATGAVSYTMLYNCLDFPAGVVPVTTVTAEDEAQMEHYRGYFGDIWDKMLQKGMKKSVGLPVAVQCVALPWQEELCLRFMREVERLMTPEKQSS
Assay: Inhibition of human FAAH
Conditions: not given

SMILES	IC50 [µM]
CNC(=O)Oc1cccc2ccccc12 [CARBARIL]	> 30
O=C(NC1CCCCC1)Oc1cccc(-c2ccccc2)c1	0.063
O=C(NC1CCCCC1)Oc1ccc2ccccc2c1	0.324
O=C(NCC1CCCCC1)Oc1ccc(C(=O)O)cc1	< 0.1
CCCCCCCC/C=C\CCCCCCCNC(=O)Oc1cccc(-c2cccc(C(N)=O)c2)c1	0.058
NC(=O)c1cccc(-c2cccc(OC(=O)NCCCCCCc3ccccc3)c2)c1	0.014

Molecular target: T2, Fatty-acid amide hydrolase 1
Assay: Inhibition of FAAH
Conditions: not given

SMILES	Ki [µM]
CCCCCCCC(=O)C(F)(F)F	1.2
CCCCCCCC/C=C\CCCCCCC(=O)c1ccncn1	0.11
CCCCCCCC/C=C\CCCCCCC(=O)c1cccnn1	0.13
O=C(CCCCSCc1ccccc1)c1ncc(-c2ccccn2)o1	0.025
CCCCCCCC/C=C\CCCCCCC(=O)c1nc2ccc(C)cc2o1	> 100
O=C(CCCCCCCc1ccccc1)c1nc2ncccc2o1	0.00039
CCCCCCCC/C=C\CCCCCCC(=O)c1nc2ccncc2o1	0.0037
CCCCCCCC/C=C\CCCCCCC(=O)c1ncc(-c2cccnc2)o1	0.061
CCCCCCCC/C=C\CCCCCCCC(=O)C(=O)OCC	0.009
O=C(CCCCCCCCc1ccccc1)c1nc2ncccc2o1	0.00052
CCCCCCCC/C=C\CCCCCCC(=O)c1nccn1C	> 100
O=C(CCCCOCc1ccccc1)c1ncc(-c2ccccn2)o1	0.055
CCCCCCC(C)OC(=O)CC(=O)CBr (stereo not given)	0.82
CCCCCCCCCCCCCC(=O)C(F)(F)F	0.49
O=C(CCCCCCc1ccccc1)c1nnc[nH]1	> 1
CCCCCCCC/C=C\CCCCCCC(=O)c1ncc(-c2ccsc2)o1	13.2
CCCCCCCC/C=C\CCCCCCCC(=O)C(N)=O	0.017
O=C(CCc1ccc(COc2ccccc2)cc1)c1ncc(-c2ccccn2)o1	0.001
CCCCCCCCCCCCCCCCCC(=O)C(F)(F)F	0.24
O=C(CCCCCCc1ccccc1)c1nc2ncccc2o1	0.00028
CCCCCCCC/C=C\CCCCCCCC=O [OLEALDEHYDE]	0.19
O=C(CCCCS(=O)(=O)Cc1ccccc1)c1ncc(-c2ccccn2)o1	> 10

SMILES	Ki [µM]
CCCCCCCC/C=C\CCCCCCC(=O)c1nc2ncccc2o1	0.0023
CCCCCCCC/C=C\CCCCCCC(=O)c1ccccc1	> 100
CCCCCCCC/C=C\CCCCCCC(=O)c1ncco1	0.017
O=C(CCCCCCc1cccc(Cl)c1)c1ncc(-c2ccccn2)o1	0.0009
CCCCCCCC/C=C\CCCCCCC(=O)c1nnn(C)n1	0.065
CCCCCCCCCCCC(=O)C(F)(F)F	0.14
O=C(CCCc1ccccc1)c1nc2ncccc2o1	0.0069
CCCCCCCC/C=C\CCCCCCC(=O)c1nc2cnccc2o1	0.0072
CCCCCCCC/C=C\CCCCCCC(=O)c1nc2cccc(C)c2o1	13
CCCCCCCC/C=C\CCCCCCC(=O)c1ncc(-c2ccco2)o1	0.054
CCCCCCCC/C=C\CCCCCCC(=O)c1nc2cccnc2o1	0.011
CCCCCCCC/C=C\CCCCCCC(=O)c1ncc(-c2ccccn2)o1	0.018
CCCCCCCC/C=C\CCCCCCC(=O)c1nc2c(C)cccc2o1	> 100
O=C(CCCCc1ccccc1)c1nc2ncccc2o1	0.0003
N#Cc1cnc(C(=O)CCc2ccc(-c3ccccc3)cc2)o1	0.0002
CCCCCCCCCC(=O)C(F)(F)F	0.13
CCCCCC(=O)C(F)(F)F	28.9
O=C(CCCCCCc1ccccc1)c1nnc(-c2ccccn2)[nH]1	> 10
O=C(O)c1cccc(CCCCCCC(=O)c2ncc(-c3ccccn3)o2)c1	> 0.6
CCCCCCCC/C=C\CCCCCCCC(=O)CCl	0.7
CCCCCCCC/C=C\CCCCCCCC(=O)O [OLEIC ACID]	6
O=C(CCCCCCc1ccccc1)c1nnn[nH]1	> 1

SMILES	Ki [µM]
CCCCCCCC/C=C\CCCCCCC(=O)c1nc2ccccc2o1	0.37
CN(CCCCC(=O)c1ncc(-c2ccccn2)o1)Cc1ccccc1	0.2
CCCCCCCC/C=C\CCCCCCC(=O)c1ccccn1	> 100
CCCCCCCC/C=C\CCCCCCC(=O)c1ncc(-c2ccncc2)o1	0.056
CCCCCCCC/C=C\CCCCCCCC(O)C(N)=O (stereo not given)	> 100
CCCCCCCC/C=C\CCCCCCC(=O)c1nc2cc(C)ccc2o1	> 100
CCCCCCCC/C=C\CCCCCCC(=O)c1nnc(-c2ccccn2)o1	3
CCCCCCCC/C=C\CCCCCCC(=O)c1ncc(-c2ccccc2)o1	0.32
O=C(CCCC[S+]([O-])Cc1ccccc1)c1ncc(-c2ccccn2)o1 (stereo not given)	2.5
CCCCCCCC/C=C\CCCCCCC(=O)c1nc(-c2ccccc2)c(-c2ccccc2)o1	> 100
CCCCCCCC/C=C\CCCCCCCC(=O)C(F)(F)F	0.012
CCCCCCCC/C=C\CCCCCCC(=O)c1nccs1	> 100
O=C(CCCCCCc1ccccc1)c1nnn(-c2ccccn2)n1	0.0011
O=C(CCCCCc1ccccc1)c1nc2ncccc2o1	0.0002
CCCCCCC(=O)C(F)(F)F	10.7
O=C(CCCCCCc1ccccc1)C(F)(F)F	0.1
CCCCCCCC/C=C\CCCCCCCC(OC)OC	> 300
CCCCCCCC/C=C\CCCCCCCC(C)=O	> 100
CCCCCCCC/C=C\CCCCCCC(=O)c1ncc(-c2ccoc2)o1	0.61
CCCCCCCC/C=C\CCCCCCC(=O)c1nc(-c2ccccn2)co1	0.031

Same assay, conditions: read-out: IC50

SMILES	IC50 [µM]
CCOC(=O)CCCc1ccc(-n2c(CC)nc(-c3ccccc3)c2-c2ccccc2)cc1	0.064
OB(O)c1ccc(Oc2ccccc2)cc1	< 0.01
CCCCC/C=C\C/C=C\C/C=C\C/C=C\CCCC(=O)NCC1CC1	1.4
O=C(NC1CCCC1)Oc1cccc(C(=O)c2nc3ccccc3s2)c1	47
CCCCC/C=C\C/C=C\C/C=C\C/C=C\CCCC(=O)NCCCl	0.9
CCCCC/C=C\C/C=C\C/C=C\C/C=C\CCCC(=O)NC12CC3CC(CC(C3)C1)C2	37.4
CCCCC/C=C\C/C=C\C/C=C\C/C=C\CCCNC(=O)NCc1ccc(OC)c(O)c1	2
NC(=O)c1cccc(-c2cccc(OC(=O)NCc3ccc4ccccc4c3)c2)c1	0.00063
CCCCC/C=C\C/C=C\C/C=C\C/C=C\CCCC(=O)O [ARACHIDONIC ACID]	> 100
CNC(=O)COC(=O)N1CCC(CCc2ccc(Cl)cc2)CC1	0.013
O=C(NC1CCCC1)Oc1cccc(C(=O)c2nc3ccccc3o2)c1	28
CC(C)c1cccc(CN2CCC(CCCC(=O)c3ncco3)CC2)c1	0.0036
O=C(Nc1cccc(C(=O)c2nc3ccccc3o2)c1)NC1CCCC1	> 300
CCCCC/C=C\C/C=C\C/C=C\C/C=C\CCCC(=O)NCCO [ANANDAMIDE]	3.4
CCCCC/C=C\C/C=C\C/C=C\C/C=C\CCCC(=O)Nc1cccnc1	1.2

Same assay, conditions: read-out: pIC50 (converted)

SMILES	IC50 [µM]
CCCCCCCCCCCCCCCC(=O)NCCCl	2.63
CCCCCCCCCCCCCCCC(=O)NCC	3.55
CCCCCCCCCCCCCCCC(=O)NCCCO [N-(3-HYDROXYPROPYL)PALMITAMIDE]	3.8
CCCCCCCCCCCCCCCC(=O)NCCBr	3.55
C=CCNC(=O)CCCCCCCCCCCCCCC [HEXADECANOIC ACID ALLYLAMIDE]	3.39
CCCCCCCCCCCCCCCC(=O)NCCCCl	2.51
CCCCCCCCCCCCCCN1C(=O)C(c2ccccc2)(c2ccccc2)NC1=S	1.15
